According to US20040029886A1, “Dihalopropene compounds, processes for their preparation, compositions comprising them and their use as pesticides” (priority 2001, published 2004):

Legend:
Assay type in all cases: in vivo
Design in all cases: key: compounds are considered to be active when, at a concentration of 500 ppm or less, their action on the harmful organisms is 50% or more
[1] = system: L1 larvae of the codling moth (Carpocapsa pomonella); test: Example J: codling moth L1 larvae on treated culture medium; conditions: 500 ppm or less, after 14 days
Description: (§1) In Examples A to L below, compounds are considered to be active when, at a concentration of 500 ppm or less, their action on the harmful organisms is 50% or more.
Culture medium was mixed with an aqueous solution of the formulated preparation to be examined and populated with 10 L1 larvae of the codling moth (Carpocapsa pomonella). After 14 days of storage at about 23° C., the effect of the preparation on the larvae (mortality) was determined. The following examples were active: Nos. 28, 59.

[2] = system: L2 larvae of the sugar beet armyworm (Spodoptera exigua); test: Example I: sugar beet armyworm L2 larvae on sprayed cotton leaves; conditions: 500 ppm or less, after 4 days
Description: as §1
Cotton plants were sprayed with an aqueous solution of the formulated preparation to be examined. After drying, leaves were cut off, placed into a Petri dish and populated with 5 L2 larvae of the sugar beet armyworm (Spodoptera exigua). After 4 days of storage at about 23° C., the effect of the preparation on the larvae (mortality) was determined. The following examples were active: Nos. 27, 28, 45, 59.

[3] = system: eggs of the American tobacco budworm (Heliothis virescens); test: Example C: eggs of American tobacco budworm, Petri dish with culture medium; conditions: 500 ppm or less; eggs dipped 5 seconds, 200 μl on culture medium; after 6 days
Description: as §1
A Petri dish whose bottom was covered with filter paper and which contained about 5 ml of culture medium was prepared. Pieces of filter paper with about 30, one-day-old eggs of the American tobacco budworm (Heliothis virescens) were dipped for 5 seconds into an aqueous solution of the formulated preparation to be examined and subsequently placed in a Petri dish. A further 200 μl of the aqueous solution were spread over the culture medium. The Petri dish was closed and then stored at about 25° C. in a climatized chamber. After 6 days of storage, the effect of the preparation on the eggs and any larvae which may have hatched from these (mortality) was determined. The following examples were active: Nos. 6, 27, 28, 29, 31, 35, 39, 43, 45, 59, 97, 226, 227, 228, 229, 351, 356, 357, 592, 593, 595, 949, 1001, 1126, 1129, 1132.

[4] = system: larvae of the diamondback moth (Plutella xylostella); test: Example L: diamondback moth larvae on sprayed cabbage leaf; conditions: 500 ppm or less, after 4 days
Description: as §1
A cabbage leaf was sprayed with an aqueous solution of the formulated preparation to be examined. After drying, the treated leaf was populated with larvae of the diamondback moth (Plutella xylostella). After 4 days of storage at about 25° C., the effect of the preparation on the larvae (mortality) was determined. The following examples were active: Nos. 27, 28, 45.

[5] = system: L2 larvae of the Egyptian cotton leaf worm (Spodoptera littoralis); test: Example D: L2 larvae of Egyptian cotton leaf worm, Petri dish with culture medium; conditions: 500 ppm or less, after 6 days
Description: as §1
A Petri dish whose bottom was covered with filter paper and which contained about 5 ml of culture medium was prepared. Five L2 larvae of the Egyptian cotton leaf worm (Spodoptera littoralis) were counted into small beakers. 200 μl of an aqueous solution of the formulated preparation to be examined were pipetted into the beaker. The treated larvae were then poured into the Petri dish, and a further 200 μl of the aqueous solution were distributed over the culture medium. The Petri dish was closed and then stored at about 25° C. in a climatized chamber. After 6 days of storage, the effect of the preparation on the larvae (mortality) was determined. The following examples were active: Nos. 27, 28, 29, 39, 43, 45, 59.

CC(=NO)c1cc(OCC=C(Cl)Cl)cc(Cl)c1OCCCOc1ccc(C(F)(F)F)cn1 [compound 28]
active: effect of the preparation on the larvae (mortality) [1] | effect of the preparation on the larvae (mortality) [2] | effect of the preparation on the eggs and any larvae hatched (mortality) [3] | effect of the preparation on the larvae (mortality) [4] | effect of the preparation on the larvae (mortality) [5]
